# Reference: PMC10856564, “Metabolites from Streptomyces aureus (VTCC43181) and Their Inhibition of Mycobacterium tuberculosis ClpC1 Protein” (Molecules, 2024)
# Entries after “also recorded” stand apart in the source; their conditions may differ.
# Columns and labels:
# [1] = system: Gr (+) and Gr (-) microbacteria; conditions: in vitro; against Gr (+) and Gr (-) microbacteria; cited from earlier work
# Excerpt: Streptomyces aureus is a species of actinomycete belonging to the genus Streptomyces. Its spores are spherical or oval in shape, and the average diameter is about 0.9 μ in width and 1.2 μ in length. […] The morphological characteristics of the S. aureus depend on different nutritional environments. A previous study reported that many active secondary metabolites were produced by this actinomycete strain. Alkaloid azirinomycin and 3-methyl-2H-azirine-2-carboxylic acid isolated fr ...
# [2] = system: recombinant ClpC1 protein; type: biochemical; conditions: compounds at 0.1 µM, 1.0 µM, and 10.0 µM, released phosphate, BIOMOL Green, absorbance at 620 nm; for Affection of ATPase activity of ClpC1: controls ecumicin and rufomycin, values only in Figure 5
# [3] = cited from earlier work
# Method: Compound 1 (7 mg) was afforded after purification using Sephadex and silica gel column chromatography, followed by thin-layer chromatography. This compound was obtained as a colorless powder.
# [4] = system: leukocyte; conditions: cited from earlier work
# Method: (§1) Compound 2 (3 mg) was yielded after column chromatography on normal-phase silica gel and the Sephadex LH20 column. Compound 2 (3 mg) was obtained as a white powder. […] The NMR data of compound 2 indicated a lactone ring structure consisting ...
# [5] = cited from earlier work; remark: listed apart in the source
# Method: as §1
# [6] = system: HCV NS3 protease; conditions: cited from earlier work
# Method: as §1
# [7] = system: tuberculosis bacteria; conditions: through targeting the regulatory protein ClpC1; cited from earlier work
# [8] = system: ClpC1; conditions: cited from earlier work; for ClpC1 inhibition: no reference at the place
# [9] = system: ClpC1/CplP1/ClpP2; conditions: via change in configuration of ClpC1; cited from earlier work
# [10] = system: ClpC1; conditions: cited from earlier work
# [11] = cited from earlier work; remark: listed apart in the source
# Method: Compound 3 (12 mg) was obtained as a white solid. This compound was afforded after two reverse-phase column chromatography. […] In the ^1H NMR spectrum, ten signals of protons appeared at δH 3.57–3.54 (2H, m, α-H of Leu^1 & Leu^2), 3.50 (1H, d, J = 3.5, α-H of Ile), 3.43 (3H, d, J = 4.5, α-H of Ala^1, Ala^2, and Ala^3), 1.97–1.95 (1H, m, β-H of Ile), 1.83–1.77 (2H, m, γ-H of Leu^1, and Leu^2), 1.83–1.59 (4H, m, β-H of Leu^1, and Leu^ ...
compound,measurement,setting,value
CC1=NC1C(=O)O (centres unmarked) [azirinomycin],antibiotic activity,[1],exhibited broad-spectrum antibiotic activity in vitro
"O=C1CCC(=O)N(O)CCCCCNC(=O)CCC(=O)N(O)CCCCCNC(=O)CCC(=O)N(O)CCCCCN1 [compound 1, nocardamin]",Affection of ATPase activity of ClpC1,[2],did not affect the ATPase activity of ClpC1
same,antimalarial activity,[3],antimalarial activity
same,siderophore activity,[3],showed siderophore activity
"O=c1ccoc(=O)o1 [compound 2, 4H-1,3-dioxine-2,4-dione]",leukocyte inhibitory effects,[4],leukocyte inhibitory effects
same,antioxidant activity,[5],possesses antioxidant activity
same,IC50,[6],78.9 µM
same,Affection of ATPase activity of ClpC1,[2],did not affect the ATPase activity of ClpC1
Cyclomarin A,anti-tuberculosis activity,[7],anti-tuberculosis activity through the mechanism of targeting the regulatory protein ClpC1 of tuberculosis bacteria
cyclomarin,effect on ATPase activity of ClpC1,[8],shown to affect the ATPase activity of ClpC1
ecumicin,effect on proteolysis,[9],affecting proteolysis of ClpC1/CplP1/ClpP2
same,effect on ATPase activity of ClpC1,[8],shown to affect the ATPase activity of ClpC1
same,ClpC1 inhibition,[8],inhibited ClpC1
same,binding site on ClpC1,[10],"binded to the allosteric site of ClpC1, causing a change in configuration"
halolitoralin A [compound 3],ATP hydrolysis effect of ClpC1 compared with ecumicin,[2]; comparison with standard compound ecumicin,"similarly to ecumicin, but with lower ATP hydrolysis affection; also recorded: affected the ATPase activity of ClpC1 in a similar way to the standard compound ecumicin; also recorded: showed the effect on the ATPase hydrolysis activity of ClpC1, acting similar way to the antibiotic eucumicin"
same,Affection of ATPase activity of ClpC1,[2],effective for the ATPase hydrolysis of the ClpC1 protein
same,anthelmintic activity,[11],anthelmintic activity
same,antimicrobial activity,[11],potent antimicrobial activity
same,antitumor activities,[11]; in vitro,antitumor activities in vitro
lassomycin,effect on ATPase activity of ClpC1,[8],shown to affect the ATPase activity of ClpC1
same,ClpC1 inhibition,[8],inhibited ClpC1
rufomycin,effect on ATPase activity of ClpC1,[8],shown to affect the ATPase activity of ClpC1
same,ClpC1 inhibition,[8],inhibited ClpC1
